Results from PubChem BioAssay (NCI).
Where “and” joins values, the source holds several entries; their conditions need not be identical. Identical values can stand only once.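 Cells were grown in 96-well plates and exposed to each compound for 48 hours at five concentrations; endpoints were interpolated linearly between bracketing concentrations, or set to the highest concentration if not reached. GI50 is the concentration that inhibits growth by half. TGI: total growth inhibition.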

Tests used:
Test in all cases: growth of human tumour cells (NCI), 48 h
HOP-62 NSCLC = system: HOP-62 NSCLC
KM12 colon = system: KM12 colon
MCF7 breast = system: MCF7 breast
NCI-H226 lung = system: NCI-H226 lung
SF-295 CNS = system: SF-295 CNS
SK-MEL-2 melanoma = system: SK-MEL-2 melanoma
SNB-19 CNS = system: SNB-19 CNS
SW-620 colon = system: SW-620 colon
UACC-257 melanoma = system: UACC-257 melanoma
UACC-62 melanoma = system: UACC-62 melanoma

SMILES | GI50 (HOP-62 NSCLC) | TGI (HOP-62 NSCLC) | GI50 (KM12 colon) | TGI (KM12 colon) | GI50 (MCF7 breast) | TGI (MCF7 breast) | GI50 (NCI-H226 lung) | TGI (NCI-H226 lung) | GI50 (SF-295 CNS) | TGI (SF-295 CNS) | GI50 (SK-MEL-2 melanoma) | TGI (SK-MEL-2 melanoma) | GI50 (SNB-19 CNS) | TGI (SNB-19 CNS) | GI50 (SW-620 colon) | TGI (SW-620 colon) | GI50 (UACC-257 melanoma) | TGI (UACC-257 melanoma) | GI50 (UACC-62 melanoma) | TGI (UACC-62 melanoma)
CS(=O)(=O)c1ccc(Cl)c([N+](=O)[O-])c1 | 15.8 µM | 29.5 µM | 14.8 µM | 29.6 µM | 10.9 µM | 33.7 µM | 15 µM | 30.3 µM | 18.5 µM | 37.9 µM | 23.2 µM | 41.7 µM | 12.5 µM | 25.5 µM | 12.8 µM | 28.6 µM | 15.8 µM | 31.6 µM | 15.1 µM | 28.6 µM
Nc1cc(N)c2nc(-c3ccccc3)c(Oc3ccc(F)cc3)nc2c1 | 21.5 µM | 49.5 µM | 14.5 µM | 40.3 µM | 20.3 µM | > 100 µM | 20.3 µM | 49.1 µM | 20.3 µM | 38.5 µM | 43 µM | > 100 µM | 17.3 µM | 33.8 µM | 19.5 µM | 50.1 µM | 23.2 µM | 42.6 µM | 15.8 µM | 33.2 µM
COc1cc2cc(Oc3ccc(NC(=O)c4cccc(C(F)(F)F)c4)cc3)c(C)nc2cc1OC | 21.6 µM | > 100 µM | 4.03 µM | > 100 µM | 3.47 µM | 24.3 µM | 7.84 µM | > 100 µM | 2.73 µM | > 100 µM | 5.11 µM | > 100 µM | 8.09 µM | > 100 µM | 10.2 µM | > 100 µM | 5.41 µM | > 100 µM | 5.27 µM | > 100 µM
N#CC(C#N)SCc1ccccc1 |  | > 100 µM |  | > 100 µM |  | > 100 µM |  | 76.6 µM |  | > 100 µM |  | 93 µM |  | > 100 µM |  | > 100 µM |  | > 100 µM |  | > 93.1 µM
NS(=O)(=O)c1ccc(N2Cc3cc(Cl)ccc3OC3=C2C(=O)N(CC2CCCCC2)C3=O)cc1 | 1.73 µM | 3.39 µM | 1.83 µM | 4.08 µM | 0.364 µM | 1.9 µM | 1.54 µM | 3.6 µM | 1.81 µM | 4.03 µM | 1.86 µM | 3.65 µM | 1.6 µM | 3.44 µM | 0.202 µM | 0.445 µM | 1.54 µM | 3 µM | 0.377 µM | 1.61 µM
S=C(N/N=C/c1cc(Cl)cc(Cl)c1)NC12CC3CC(CC(C3)C1)C2 | 2.43 µM | 5.93 µM | > 100 µM | > 100 µM | > 82.3 µM | > 100 µM | > 29.9 µM | > 100 µM | 3.92 µM | > 24.5 µM | 7.74 µM | > 30.3 µM | 5.99 µM | > 100 µM | 13.4 µM | > 100 µM | > 22.7 µM | > 100 µM | 10.2 µM | > 100 µM
Nc1c(C(=O)Nc2ccc([As](=O)(O)O)cc2)cnc2nnnn12 |  | > 100 µM |  | > 100 µM |  | > 100 µM |  | > 100 µM |  | > 100 µM |  | > 100 µM |  | > 100 µM |  | > 100 µM |  | > 100 µM |  | > 100 µM
CC(C)n1c(/C=C/[C@@H](O)C[C@@H](O)CC(=O)O)c(-c2ccc(F)cc2)c2ccccc21 | 11.4 µM and 13 µM | > 100 µM | 16.6 µM and 21.9 µM | > 100 µM | 20.7 µM and 16.6 µM | > 100 µM | 2.89 µM and 3.71 µM | > 100 µM | 0.361 µM and 0.429 µM |  | 1.51 µM and 0.983 µM | 30.9 µM and 22.3 µM | 4.23 µM and 1.32 µM | > 100 µM | 3.76 µM and 5.15 µM | > 100 µM | 52.7 µM and 47.5 µM | > 100 µM | 0.526 µM and 0.537 µM | 34.4 µM and 25 µM
Clc1ccc(COC(Cn2ccnc2)c2ccc(Cl)cc2Cl)cc1 (configuration not stated) | 3.02 µM | 13.6 µM and 26.8 µM and 35.6 µM | 3.18 µM | 11 µM and 29.5 µM and 28.4 µM | 2.43 µM | 6.63 µM and 28.7 µM and 24 µM |  | 22.1 µM and 50 µM and 11.7 µM | 1.9 µM | 8.99 µM and 24 µM and 23.6 µM | 2.32 µM | 5.08 µM and 28.9 µM and 28.8 µM | 3.35 µM | 17.9 µM and 32.3 µM and 30.5 µM | 2.96 µM | 13.3 µM and 27.4 µM and 29.2 µM | 2.63 µM | 9.14 µM and 27.7 µM and 22.5 µM | 2.16 µM | 11.9 µM and 25.2 µM and 22.3 µM
CN1CCCN(CCNc2nccc(-c3c(-c4cccc(O)c4)nc4sccn34)n2)S1(=O)=O | 30.6 µM and 30.9 µM | 75 µM and > 100 µM | 11.7 µM and 9.82 µM | 32.5 µM and 55.8 µM | 22.1 µM and 18.8 µM | 75 µM and > 100 µM | 15.3 µM and 11.3 µM | 50 µM and 54.5 µM | 12.9 µM and 13.3 µM | 32.1 µM and 38.8 µM | 2.37 µM and 2.15 µM | 7.29 µM and 6.74 µM | 40 µM and 48.7 µM | 75 µM and > 100 µM | 18.7 µM and 19.1 µM | 75 µM and > 100 µM | 0.132 µM and 1.01 µM |  | 0.0417 µM and 0.0537 µM | 1.4 µM and 2.22 µM
Cc1cc(N(CCNc2ccnc3cc(Cl)ccc23)Cc2ccc3c(c2)OCO3)nc(N2CCN(C)CC2)n1 | 2.22 µM | 15.4 µM | 4.42 µM | 17.7 µM | 2.4 µM | 10.9 µM | 17.7 µM | 36.8 µM | 1.72 µM | 3.42 µM | 1.98 µM | 4.02 µM | 3.78 µM | 13 µM | 2.08 µM | 5.41 µM | 2.01 µM | 3.79 µM | 1.9 µM | 3.51 µM
COc1cc(/C=C2\CN(C)CC3=C2Nc2nc(SC)[nH]c(=O)c2C3c2cc(OC)c(OC)c(OC)c2)cc(OC)c1OC (configuration not stated) | 2.46 µM | 7.09 µM | 1.7 µM | 3.21 µM | 4.98 µM | 18.3 µM | 6.17 µM | 22.2 µM | 2.24 µM | 5.47 µM | 9.92 µM | 33.3 µM | 8.65 µM | 21.9 µM | 2 µM | 4.41 µM | 2.24 µM | 7.63 µM | 2.06 µM | 5.11 µM
COC1/C=C/OC2(C)Oc3c(C)c(O)c4c(c3C2=O)C(=O)C=C(NC(=O)/C(C)=C\C=C\C(C)C(OC=O)C(C)C(O)C(C)C(OC(C)=O)C1C)C4=O (configuration not stated) |  | 34.8 µM |  | 45.9 µM |  | 7.29 µM |  | 21.5 µM |  | 51 µM |  | 36.6 µM |  | 27.4 µM |  | 14 µM |  | 26.5 µM |  | 27.9 µM
Cc1cc2c(cc1C)NC1=C(N2)OC(c2c[nH]c3ccc(COc4ccccc4)cc23)C1=O (configuration not stated) |  | 49.8 µM |  | > 100 µM |  | > 100 µM |  | > 100 µM |  | > 100 µM |  | > 100 µM |  | > 100 µM |  | > 100 µM |  | > 100 µM |  | > 100 µM
